# Experimental data from patent US20050276834A1, “Mole bait and systems and methods for making and using an improved mole bait” (priority 2004, published 2005).
# System: moles
# Assay: Mole bait article fed to moles, killing of moles
# Format: in vivo
# Details: bromethalin absorbed from a single mole bait article; oral consumption by mole
# Method: In developing the mole bait article containing gelatin, sorbitol and glycerin according to the above-outlined exemplary embodiment, the applicants screened a large number of elastomers and plasticizers. This screening included determining an appropriate ratio of components by stretching the resultant mole bait article, where the length of the mole bait article was measured before, during and after stretching. This screening also included stretching the mole bait article until the mole bait article broke, thus allowing the tensile strength of the mole bait article to be determined. This screening included providing the mole bait article having the identified formula to moles and observing whether the moles would consume the resultant mole bait article. Finally, this screening included determining whether the mole bait article, when digested by the moles, is sufficiently digestible that a single mole bait article releases an effective amount of the active ingredient into the moles' systems.
# In contrast, in various exemplary embodiments of the mole bait article according to this invention, the mole bait article is sufficiently digestible that a single mole bait article according to this invention, upon being consumed and digested, is able to release an effective dose of the active ingredient to the mole. […]
smiles,measurement,value
CN(c1c(Br)cc(Br)cc1Br)c1c([N+](=O)[O-])cc([N+](=O)[O-])cc1C(F)(F)F [Bromethalin],dose received from a single mole bait article during its time in the mole's digestive system,lethal dose from a single one of the mole bait articles
